The values below come from patent US10328113B2, “Method for preventing or treating an allergic disease using extract from illicium verum” (Korea Institute of Oriental Medicine, priority 2012, dated 2019).

One assay has as its system IL-8. In words: IL-8 secretion inhibition, PMA and A23187-stimulated MC/9 mast cells (ELISA). The class given is cell-based. Conditions: Mus musculus, Mast cell; positive control 10 nM; PMA + A23187, 7 hr; read-out: Inhibition rate of IL-8 (%). The protocol: (§1) MC/9 mouse mast cells seeded in a 96-well plate were treated with 20 nM PMA (Phorbol Myristate Acetate) and 0.5 μM or 1 μM calcium ionophore A23187, together with various concentrations of the Illicium verum extract (0, 25, 50, 100, 200 and 400 μg/ml). […] Seven hour later, the secreted amount of cytokines in medium was measured using the ELISA kit (R&D systems Inc., Minneapolis, USA). The 100% activity was calculated with referring to difference of the secreted cytokine amount between the untreated group and the treated group with PMA and A23187.
(§2) The secretion amount was calculated as follows: [1−(the amount of the secreted cytokine in the treated group−the amount of the secreted cytokine in the untreated group)/(the amount of secreted […] in the untreated group]×100.
(§3) The inhibition rate was calculated as follows: [1−(the amount of the secreted cytokine in the treated group−the amount of the secreted cytokine in the untreated group)/(the amount of secreted cytokine in positive control−the amount of the secreted cytokine in the untreated group]×100.
(§4) All data were expressed as mean±standard deviation. Student's t-test was used to examine differences among groups and the data with p<0.05 were considered as statistically significant.
In general terms: ELISA stands for enzyme-linked immunosorbent assay.

Another assay deals with IL-4. Kind of assay: IL-4 secretion inhibition, PMA and A23187-stimulated MC/9 mast cells (ELISA). Conditions: Mus musculus, Mast cell; positive control 10 nM; PMA + A23187, 7 hr; read-out: Inhibition rate of IL-4 (%). The assay is classed as cell-based. The protocol: as §1, §2, §3, §4

For `C[C@@H]1C[C@H]2[C@@H]3CCC4=CC(=O)C=C[C@]4(C)[C@@]3(F)[C@@H](O)C[C@]2(C)[C@@]1(O)C(=O)CO` [Dex, dexamethasone], the values for the inhibition at 0.01 µM in the assay with IL-8 and with IL-4 were 23% and 0.4%, respectively.
